Results on 1 substance are retold here after patent publication US20020031787A1, “Compositions and methods for reducing autoimmunity” (priority 2000, published 2002).

Where no end group is shown, it is not given here.

For this assay, the system named is NOD mice. To be noted: mouse, in vivo.

On to “insulin B chain 8-20 amino acid peptide (GSHLVEALYLVCG; ends and bridges not checked; UniProt P01308 32-44, looked up, fragment) [islet cell antigen peptide added to the vaccines]”, for which the “effect of the vaccines on diabetes when the peptide was added” value was “enhanced”.
